In patent US12582664B2, “Treatment of fragile x syndrome with cannabidiol” (Harmony Biosciences Management, Inc., priority 2017, dated 2026):

Legend:
[1] = test system: patients with FXS and comorbid ASD; experiment: Pooled analysis of Week 12 change in ABC-C Irritability versus placebo; type: in vivo, human
Description: The data collected from the studies presented herein, and other similar studies were pooled together and analyzed. […] The subjects had moderate to severe symptoms of ASD (ADOS-2, comparison score greater than, or equal to, 5). The data presented in Table 2 is the Week 12 change in ABC-C Irritability of all patients. In previous studies (such as presented in Example 1, Table 1) the data was enriched by removing the non-completers from the analysis and only presenting data from the completers.

[2] = test system: children and adolescents with autism spectrum disorder; experiment: Aberrant Behavior Checklist-Community (ABC-C), BRIGHT study; parameters: species or system human; conditions: in vivo
Description: Another test that can be used by clinicians to measure the severity of symptoms of ASD is the Aberrant Behavior Checklist-Community test (ABC-C). The original Aberrant Behavior Checklist (ABC) was designed to assess behavioral concerns of adults within institutional settings. The original ABC was later adapted to address patients who are not institutionalized and specifically to address subjects diagnosed with ASD. The Aberrant Behavior Checklist-Community (ABC-C) is used by clinicians, doctors, and researchers to access certain behaviors in non-institutionalized patients with ASD. […]
An exploratory open-label safety, tolerability and efficacy study of Zygel™ ZYN002 transdermal gel to 37 children and adolescents with autism spectrum disorder was conducted. […] ASD was confirmed by Diagnostic and Statistical Manual of Mental Disorders, 5th edition (DSM-5) diagnostic criteria to assess the safety and efficacy of ZYN002 in treating ASD-related behaviors as measured by a variety of efficacy assessments. […]
Subjects were administered a 250 or 500 mg total daily dose, administered twice daily, of CBD in the form of ZYN002 CBD transdermal gel for 14 weeks. […] The trial evaluated multiple efficacy assessments, including the ABC-C, PRAS-ASD, Autism Parenting Stress Index, Autism Impact Measure (AIM), and Clinical Global Impression-Severity (CGI-S) and Improvement (CGI-I). […]

Question: Which results are given for `C=C(C)C1CCC(C)=CC1c1c(O)cc(CCCCC)cc1O` (stereo not drawn) [CBD, 2-[3-methyl-6-(1-methylethenyl)-2-cyclohexen-1-yl]-5-pentyl-1,3-benzenediol]?
Answer: improvement in irritability, ABC-CFXS Social Avoidance score >7 compared to ≤7 ([1]; ASD subjects): twice as much improvement in irritability; subjects showing an improvement in irritability, high social avoidance and/or anxiety scores compared to lesser scores ([1]; in vivo): about twice as many subjects; improvement in irritability, PRAS score >37 compared to ≤37 [2]: twice as much improvement in irritability
